# Target: Methionine aminopeptidase 2 (Homo sapiens) (UniProt P50579)
# Test: Inhibition of MetAP2 (unknown origin)
# Chain of Methionine aminopeptidase 2 (Homo sapiens) (P50579 whole entry, looked up): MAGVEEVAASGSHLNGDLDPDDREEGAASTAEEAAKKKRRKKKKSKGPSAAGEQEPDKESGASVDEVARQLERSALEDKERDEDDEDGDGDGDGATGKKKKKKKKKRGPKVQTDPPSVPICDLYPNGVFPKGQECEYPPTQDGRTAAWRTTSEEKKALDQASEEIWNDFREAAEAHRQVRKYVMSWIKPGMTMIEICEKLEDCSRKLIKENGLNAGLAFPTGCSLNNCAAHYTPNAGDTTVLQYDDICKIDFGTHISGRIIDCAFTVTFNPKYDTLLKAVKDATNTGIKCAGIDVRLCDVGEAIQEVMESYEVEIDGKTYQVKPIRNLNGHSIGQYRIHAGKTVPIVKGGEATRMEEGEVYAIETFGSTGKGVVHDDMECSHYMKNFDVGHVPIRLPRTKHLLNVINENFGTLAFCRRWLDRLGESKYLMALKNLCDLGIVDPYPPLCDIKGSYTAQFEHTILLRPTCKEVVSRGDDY
row,Compound,IC50 [nM]
1,CC(=O)c1[nH]c2ccc(Cl)cc2c1-c1ccccc1,1580
2,NC(=O)c1[nH]c2c(Cl)cccc2c1-c1ccccc1,7940
3,NC(=O)c1[nH]c2ccc(F)cc2c1-c1ccccc1,631
4,NC(=O)c1[nH]c2ccccc2c1-c1ccccc1,2510
5,NC(=O)c1[nH]c2cnccc2c1-c1ccccc1,6310
6,NC(=O)c1[nH]c2ncc(Cl)cc2c1-c1ccccc1,1260
7,NC(=O)c1[nH]c2cc(F)c(Cl)cc2c1-c1ccccc1,63
8,COc1ccccc1-c1c(C(N)=O)[nH]c2ccc(Cl)cc12,100
9,NC(=O)c1[nH]c2ccc(Cl)cc2c1-c1ccccc1OC(F)(F)F,398
10,COc1ccccc1-c1c(C(N)=O)[nH]c2cc(F)c(Cl)cc12,6.3
11,NC(=O)c1[nH]c2ccc(Cl)cc2c1-c1ccc(Cl)cc1,398
12,N#Cc1ccc(-c2c(C(N)=O)[nH]c3ccc(Cl)cc23)cc1,501
13,CC(C)Oc1cc(N2CCNCC2)ccc1-c1c(C(N)=O)[nH]c2cc(F)c(Cl)cc12,3.2

# More lines, now with the values ahead:
row,IC50 [nM],Compound
1,316,NC(=O)c1[nH]c2ccc(Cl)cc2c1-c1ccccc1
2,20000,O=C(O)c1[nH]c2ccc(Cl)cc2c1-c1ccccc1
3,3980,NC(=O)c1[nH]c2ccc(Cl)c(F)c2c1-c1ccccc1
4,631,NC(=O)c1[nH]c2c(F)cc(Cl)cc2c1-c1ccccc1
5,316,Cc1ccccc1-c1c(C(N)=O)[nH]c2ccc(Cl)cc12
6,25,CC(C)Oc1ccccc1-c1c(C(N)=O)[nH]c2ccc(Cl)cc12
7,5,CC(C)Oc1ccccc1-c1c(C(N)=O)[nH]c2cc(F)c(Cl)cc12
8,126,COc1ccc(-c2c(C(N)=O)[nH]c3ccc(Cl)cc23)cc1
9,100,CN(C)c1ccc(-c2c(C(N)=O)[nH]c3ccc(Cl)cc23)cc1
10,251,NC(=O)c1[nH]c2ccc(Cl)cc2c1-c1ccc(C(=O)N2CCCC2)cc1
11,50,NC(=O)c1[nH]c2ccc(Cl)cc2c1-c1ccc(N2CCOCC2)cc1
12,25,CN1CCN(c2ccc(-c3c(C(N)=O)[nH]c4ccc(Cl)cc34)cc2)CC1
13,1000,CN(C)Cc1ccc(-c2c(C(N)=O)[nH]c3ccc(Cl)cc23)cc1
14,251,NC(=O)c1[nH]c2ccc(Cl)cc2c1-c1ccc(-c2ccn[nH]2)cc1
15,2,CC(C)Oc1cc(N2CCNCC2)ccc1-c1c(C(N)=O)[nH]c2cc(F)c(F)cc12
